The source of these data is US20190289849A1, “Novel Plant Growth Regulators and Methods of Using Same” (Duke University, priority 2016, published 2019).

For this test, the system named is lateral root primordia. Nature of the test: Lateral root primordia counts with WOX5 (stage 1) and EN7 (stage 3) markers, and primordia emergence. Format: in vivo, Arabidopsis thaliana. On the procedure:
All seeds were in the Columbia-0 background. Seeds were sterilized with chlorine gas, incubated in 4° C. water for 2 days, and plated on 1% (wt/vol) Murashige and Skoog (1% MS) media with 1% agar. They were exposed to 100-130 μmol/(m^2s^1) illumination and grown vertically under long-day conditions at 22° C. Plants were analyzed at 7 days after stratification (das), unless noted otherwise. D15-treated media was made using D15 (N-(4-fluorobenzyl)-methoxycinnamic hydroxamic acid) synthesized by LeadGen Labs, LLC solubilized in DMSO. 100 mM D15 stock solution was diluted directly into 1% MS media for final concentrations ranging from 1 μM to 100 μM. For initial experiments testing the ability of apocarotenoids to rescue D15, plants were seeded on 1% MS media containing 30 μM D15 and 100 nM apocarotenoid (diluted from 1 mM stock solutions dissolved in DMSO). For subsequent experiments characterizing the effect of β-cyclocitral, plants were exposed to volatile analytical grade β-cyclocitral (≥97%, Sigma Aldrich) using 100×15 mm partitioned petri dishes. One side of the partition was filled with 25 μM β-cyclocitral diluted in 1% MS media. Seeds were plated on the other side of the partition, on 1% MS media. […] For norflurazone treatments, norflurazone (Chem Service) dissolved in DMSO was diluted to a final concentration of 500 nM norflurazone in 1% MS media. For all experiments, including those performed on tomatoes and rice, plants were never exposed to DMSO concentrations that exceeded 0.1%.
To measure lateral root capacity, the primary root apical meristem of each seedling was sterilely excised at 7 days. The plants were given 3 days to grow out lateral roots, and then each emerged lateral root was counted using a dissection microscope, as described previously (Van Norman et al., Proceedings of the National Academy of Sciences of the United States of America, 2014. 111(13): p. E1300-E1309). Luciferase activity was measured as previously described, using exposure times of 7 min (Moreno-Risueno, M. A., et al., Science, 2010. 329(5997): p. 1306-1311). WOX5^+ and EN7^+ primordia were counted using a stereo zoom microscope (Zeiss). Lateral and primary root lengths for Arabidopsis thaliana and tomato were measured using ImageJ (National Institutes of Health) software. 3D images of rice root architecture were captured using a 360° revolving platform and these images were analyzed using GiA Roots (www.giaroots.org), as described previously by Topp (2013). Primary root lengths were determined by dissecting the root and measuring the length with a ruler. Shoot mass was measured after removing the shoots and drying them for 10 days at 60° C.
First, the effect of D15 on lateral root branching was characterized and is shown FIG. 1. […] NCEDs are a sub-group of CCDs that cleave carotenoids at the 11, 12′ positions. […] By titrating D15 to its IC50 concentration (30 μM), the lateral root capacity was measured with enhanced sensitivity (FIGS. 1A-B). To determine how D15 inhibits lateral root branching, its effect on the lateral root clock, which establishes the sites of lateral root initiation, was examined. To test this, a synthetic promoter driving luciferase (pDR5:LUC) was utilized. In control roots, luminescence intensity oscillates every six hours (FIG. 1C). Only the root cells that experience the peak oscillation intensity become competent to form lateral root pre-branch sites. […] To further characterize the effect of D15 on lateral root initiation, its effect on two stages of primordia development was determined, as marked by WOX5 (pWOX5:GFP) and EN7 (pEN7:GAL4; UAS:H2A-GFP). These lines allow visualization of the QC at stage 1 of primordia development and the endodermis at stage 3 of development, respectively. […] This further supports the lateral root clock evidence that D15 inhibits the initiation of lateral root primordia.

Consider `CC1=C(C=O)C(C)(C)CCC1` [β-cyclocitral], for which the “WOX5+ primordia initiation” value (in D15-treated plants) was “did not rescue”. For the setting “in the absence of D15”, the “WOX5+ sites” value is reported as “did not increase”. The “number of EN7+ primordia” value is “did increase” (in the absence of D15, p=0.12) and “did increase” (in the presence of D15, p=0.02).
